pEC50: −log10 of the molar value.
Target: T1, TDO2 (Homo sapiens, UniProt P48775)
T1 construct: decreased levels of NFK in SW48 cells (high TDO expressing cells)
Assay: TDO2 cell assay (NFK GreenScreen, SW48 cells)
Type: cell-based
Settings: SW48 cells (high TDO expressing), 200 uM tryptophan, 24 hours; Table 3; read-out: TDO2 Cell Fluor EC50

T1 sequence (P48775 whole entry): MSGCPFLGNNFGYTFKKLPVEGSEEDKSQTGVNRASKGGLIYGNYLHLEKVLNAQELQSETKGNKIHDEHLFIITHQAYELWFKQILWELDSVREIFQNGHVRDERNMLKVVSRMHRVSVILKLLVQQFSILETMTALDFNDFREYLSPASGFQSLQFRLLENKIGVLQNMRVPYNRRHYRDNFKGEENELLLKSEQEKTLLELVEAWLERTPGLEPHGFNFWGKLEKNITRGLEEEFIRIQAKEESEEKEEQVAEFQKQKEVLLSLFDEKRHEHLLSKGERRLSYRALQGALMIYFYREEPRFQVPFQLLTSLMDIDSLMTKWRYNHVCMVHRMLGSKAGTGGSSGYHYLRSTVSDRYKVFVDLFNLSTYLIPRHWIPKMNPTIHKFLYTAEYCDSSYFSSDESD

Structure (SMILES) | pEC50
CS(=O)(=O)c1ccc2c(c1)OCC(C1c3ccccc3-c3cncn31)C2O (single isomer, unassigned) [Example 91h] | < 4.60
CS(=O)(=O)N1CCC(O)C(C2c3ccccc3-c3cncn32)CC1 (single isomer, unassigned) [Example 92a] | 5.92
CS(=O)(=O)N1CCC(O)C(C2c3ccccc3-c3cncn32)CC1 (single isomer, unassigned) [Example 92b] | 5.07
CS(=O)(=O)N1CCC(O)C(C2c3ccccc3-c3cncn32)CC1 (single isomer, unassigned) [Example 92c] | 4.74
CS(=O)(=O)N1CCC(O)C(C2c3ccccc3-c3cncn32)CC1 (single isomer, unassigned) [Example 92d] | 6.62
Cn1ncc2c1CCC(C1c3ccccc3-c3cncn31)C2O (single isomer, unassigned) [Example 93b] | 5.26
Cn1ncc2c1CCC(C1c3ccccc3-c3cncn31)C2O (single isomer, unassigned) [Example 93c] | 5.85
Cn1ncc2c1CCC(C1c3ccccc3-c3cncn31)C2O (single isomer, unassigned) [Example 93d] | 5.85
Cn1ncc2c1CCC(C1c3ccccc3-c3cncn31)C2O (single isomer, unassigned) [Example 93e] | 5.37
Cn1ncc2c1CCC(C1c3ccccc3-c3cncn31)C2O (single isomer, unassigned) [Example 93f] | 6.09
Cn1ncc2c1CCC(C1c3ccccc3-c3cncn31)C2O (single isomer, unassigned) [Example 93g] | < 4.60
OC1c2cncnc2CCC1C1c2ccccc2-c2cncn21 (single isomer, unassigned) [Example 94a] | 5.64
OC1c2cncnc2CCC1C1c2ccccc2-c2cncn21 (single isomer, unassigned) [Example 94b] | 5.51
OC1c2cncnc2CCC1C1c2ccccc2-c2cncn21 (single isomer, unassigned) [Example 94d] | 6.89
OC1c2cncnc2CCC1C1c2ccccc2-c2cncn21 (single isomer, unassigned) [Example 94e] | 5.70
OC1c2cncnc2CCC1C1c2ccccc2-c2cncn21 (single isomer, unassigned) [Example 94f] | 4.92
OC1c2cncnc2CCC1C1c2ccccc2-c2cncn21 (single isomer, unassigned) [Example 94g] | 4.85
OC1c2cncnc2CCC1C1c2ccccc2-c2cncn21 (single isomer, unassigned) [Example 94h] | < 4.60
OC1c2cc(CF)nn2CCC1C1c2ccccc2-c2cncn21 (single isomer, unassigned) [Example 95a] | < 4.60
OC1c2cc(CF)nn2CCC1C1c2ccccc2-c2cncn21 (single isomer, unassigned) [Example 95b] | 6.62
CN(C)C(=O)c1ccc2c(c1)CCC(C1c3ccccc3-c3cncn31)C2O (single isomer, unassigned) [Example 98a] | 7.14
CN(C)C(=O)c1ccc2c(c1)CCC(C1c3ccccc3-c3cncn31)C2O (single isomer, unassigned) [Example 98b] | 5.06

Structure (SMILES) | pEC50
CN(C)C(=O)c1ccc2c(c1)CCC(C1c3ccccc3-c3cncn31)C2O (single isomer, unassigned) [Example 98c] | 6.74
CN(C)C(=O)c1ccc2c(c1)CCC(C1c3ccccc3-c3cncn31)C2O (single isomer, unassigned) [Example 98d] | 5.02
CN(C)C(=O)c1ccc2c(c1)CCC(C1c3ccccc3-c3cncn31)C2O (single isomer, unassigned) [Example 98e] | 4.66
CN(C)C(=O)c1ccc2c(c1)CCC(C1c3ccccc3-c3cncn31)C2O (single isomer, unassigned) [Example 98f] | 5.60
CN(C)C(=O)c1ccc2c(c1)CCC(C1c3ccccc3-c3cncn31)C2O (single isomer, unassigned) [Example 98g] | 6.07
CN(C)C(=O)c1ccc2c(c1)CCC(C1c3ccccc3-c3cncn31)C2O (single isomer, unassigned) [Example 98h] | 5.01
OC1COCCC1C1c2cccc(F)c2-c2cncn21 (single isomer, unassigned) [Example 99a] | < 4.60
OC1COCCC1C1c2cccc(F)c2-c2cncn21 (single isomer, unassigned) [Example 99b] | < 4.60
OC1COCCC1C1c2cccc(F)c2-c2cncn21 (single isomer, unassigned) [Example 99c] | < 4.60
OC1COCCC1C1c2cccc(F)c2-c2cncn21 (single isomer, unassigned) [Example 99d] | 6.14
NS(=O)(=O)c1ccc2c(c1)CCC(C1c3ccccc3-c3cncn31)C2O (single isomer, unassigned) [Example 100a] | 6.92
NS(=O)(=O)c1ccc2c(c1)CCC(C1c3ccccc3-c3cncn31)C2O (single isomer, unassigned) [Example 100b] | 5.89
NS(=O)(=O)c1ccc2c(c1)CCC(C1c3ccccc3-c3cncn31)C2O (single isomer, unassigned) [Example 100c] | 5.13
NS(=O)(=O)c1ccc2c(c1)CCC(C1c3ccccc3-c3cncn31)C2O (single isomer, unassigned) [Example 100d] | < 4.60
NS(=O)(=O)c1ccc2c(c1)CCC(C1c3ccccc3-c3cncn31)C2O (single isomer, unassigned) [Example 100e] | 5.89
NS(=O)(=O)c1ccc2c(c1)CCC(C1c3ccccc3-c3cncn31)C2O (single isomer, unassigned) [Example 100f] | 4.82
NS(=O)(=O)c1ccc2c(c1)CCC(C1c3ccccc3-c3cncn31)C2O (single isomer, unassigned) [Example 100h] | 5.32
NS(=O)(=O)N1CCC(O)C(C2c3ccccc3-c3cncn32)CC1 (single isomer, unassigned) [Example 101a, 4-hydroxy-5-(5H-imidazo[5,1-a]isoindol-5-yl)azepane-1-sulfonamide] | < 4.60
NS(=O)(=O)N1CCC(O)C(C2c3ccccc3-c3cncn32)CC1 (single isomer, unassigned) [Example 101b, 4-hydroxy-5-(5H-imidazo[5,1-a]isoindol-5-yl)azepane-1-sulfonamide] | 5.29
NS(=O)(=O)N1CCC(O)C(C2c3ccccc3-c3cncn32)CC1 (single isomer, unassigned) [Example 101c, 4-hydroxy-5-(5H-imidazo[5,1-a]isoindol-5-yl)azepane-1-sulfonamide] | < 4.60
OC1c2ccccc2CCC1C1c2ccccc2-c2cncn21 (single isomer, unassigned) [Example 102a] | 7.14
OC1c2ccccc2CCC1C1c2ccccc2-c2cncn21 (single isomer, unassigned) [Example 102b] | 4.72

Structure (SMILES) | pEC50
OC1c2ccccc2CCC1C1c2ccccc2-c2cncn21 (single isomer, unassigned) [Example 102c] | 6.49
OC1c2ccccc2CCC1C1c2ccccc2-c2cncn21 (single isomer, unassigned) [Example 102d] | 4.96
O[C@@H]1c2ccccc2CC[C@H]1[C@@H]1c2ccccc2-c2cncn21 (single isomer, unassigned) [Example 102g] | 6.46
O[C@@H]1c2ccccc2CC[C@H]1[C@@H]1c2ccccc2-c2cncn21 (single isomer, unassigned) [Example 102h] | 5.08
NC(=O)c1ccc2c(n1)CCC(C1c3ccccc3-c3cncn31)C2O (single isomer, unassigned) [Example 104a] | 5.66
NC(=O)c1ccc2c(n1)CCC(C1c3ccccc3-c3cncn31)C2O (single isomer, unassigned) [Example 104b] | 6.70
NC(=O)c1ccc2c(n1)CCC(C1c3ccccc3-c3cncn31)C2O (single isomer, unassigned) [Example 104c] | 4.64
NC(=O)c1ccc2c(n1)CCC(C1c3ccccc3-c3cncn31)C2O (single isomer, unassigned) [Example 104d] | 4.85
NC(=O)c1ccc2c(n1)CCC(C1c3ccccc3-c3cncn31)C2O (single isomer, unassigned) [Example 104e] | 5.47
NC(=O)c1ccc2c(n1)CCC(C1c3ccccc3-c3cncn31)C2O (single isomer, unassigned) [Example 104f] | 5.07
NC(=O)c1ccc2c(n1)CCC(C1c3ccccc3-c3cncn31)C2O (single isomer, unassigned) [Example 104g] | 6.48
NC(=O)c1ccc2c(n1)CCC(C1c3ccccc3-c3cncn31)C2O (single isomer, unassigned) [Example 104h] | 4.70
NS(=O)(=O)c1ccc2c(c1)C(O)C(C1c3ccccc3-c3cncn31)CC2 (single isomer, unassigned) [Example 105a] | 4.92
NS(=O)(=O)c1ccc2c(c1)C(O)C(C1c3ccccc3-c3cncn31)CC2 (single isomer, unassigned) [Example 105b] | 5.07
NS(=O)(=O)c1ccc2c(c1)C(O)C(C1c3ccccc3-c3cncn31)CC2 (single isomer, unassigned) [Example 105c] | 7.11
NS(=O)(=O)c1ccc2c(c1)C(O)C(C1c3ccccc3-c3cncn31)CC2 (single isomer, unassigned) [Example 105d] | 7.36
NS(=O)(=O)c1ccc2c(c1)C(O)C(C1c3ccccc3-c3cncn31)CC2 (single isomer, unassigned) [Example 105e] | 6.34
NS(=O)(=O)c1ccc2c(c1)C(O)C(C1c3ccccc3-c3cncn31)CC2 (single isomer, unassigned) [Example 105f] | 4.80
NS(=O)(=O)c1ccc2c(c1)C(O)C(C1c3ccccc3-c3cncn31)CC2 (single isomer, unassigned) [Example 105g] | 5.04
NS(=O)(=O)c1ccc2c(c1)C(O)C(C1c3ccccc3-c3cncn31)CC2 (single isomer, unassigned) [Example 105h] | 6.29

Reference: patent publication US12583858B2 (Genentech, Inc., priority 2015, dated 2026)
